Legend:
HeLa cells = experiment: Imaging hydrogen peroxide in living HeLa cells with compound RAH2115 (confocal); assay type: cell-based, human; details: ex: 561 nm, em: 587 nm
Protocol: HeLa (human cervical cancer) cells were grown and maintained appropriately according to the American Type Culture Collection (Manassas, Va.). Dulbecco's Modified Eagle Medium:F12-K (1:1) was supplemented with 10% fetal bovine serum (FBS), 1% penicillin-streptomycin, and 1% L-glutamine (ThermoFisher). Cells were incubated at 37° C. in a 5% CO2 atmosphere and split at 70-80% confluency every 2-3 days.
At 70-80% confluency, HeLa cells were seeded on two 35 mm glass-bottom round plates (MatTek Corporation, Ashland, Mass.) at a density of 200 k cells/mL. After adhering overnight, FBS-free media was aspirated and cells were washed with phosphate buffered saline (1×, pH 7.4). Cells in one dish were then incubated with 10 mM Paraquat (Methyl Viologen) for 4 h. Afterwards, both dishes were washed and incubated with compound RAH2115 (10 μM) for 1 hour. After a final PBS wash, both plates were rehydrated in phenol red-free media for imaging. Both control (absence of paraquat) and experimental (presence of paraquat) plates were imaged: ex: 561 nm, em: 587 nm. […]
An automated cell selection algorithm within the ImageJ software was used to quantify intracellular fluorescence. Cells from both control and experimental groups were subjected to Gaussian smoothing in order to accurately measure fluorescence within cells based on a minimum threshold against background. […]

[1] = Selectivity screen of compound RAH2115 against oxidants, reductants, nucleophiles and salts (turn-on fluorescence); assay type: physicochemical; details: RAH2115 10 μM
From the text: Given the longer excitation and emission profile of resorufin, it was hypothesized that compound RAH2115 would provide a better gauge of the overall selectivity and sensitivity of the scaffold towards H2O2 while confirming its potential applications within a biological setting. The high selectivity the scaffold towards H2O2 was confirmed by thoroughly screening compound RAH2115 against various oxidants, reductants, and nucleophiles in PBS buffer (pH 7.4) and measuring the resulting turn-on fluorescence after a 2 h incubation period (See FIG. 4, Graph A).
[…] Next, 1.080 mL of a freshly prepared 111.1 μM compound RAH2115 stock solution was added to 10.80 mL of 1× PBS buffer (pH 7.4) to give a total volume of 11.88 mL. 120 μL of analyte stock solution (PBS buffer alone, hydrogen peroxide, glutathione, glutathione disulfide, sodium nitrite, L-cysteine, L-lysine, L-serine, sodium chloride, sodium bromide, L-homocysteine, sodium sulfide, sodium sulfate, sodium thiosulfate and sodium hypochlorite) was then added to give a final volume of 12 mL, and each reaction was left to stir at 37° C.

[2] = Initial rates of fluorescence intensity of compound RAH2115 vs H2O2 concentration; detection limit; assay type: physicochemical; details: Detection Limit=3σ/κ, slope from FIG. 4 Graph B
Protocol: The initial response rate of compound RAH2115 was also verified to be directly proportional to the concentration of H2O2. Specifically, immediately prior to use, 5 mM and 0.5 mM stock solutions of hydrogen peroxide were prepared in freshly degassed 1× PBS buffer (pH 7.4) using reagent grade H2O2 (30%). A 100 μM stock solution of compound RAH2115 was prepared in 200-proof ethanol. […] The plate was inserted into a 96-well plate reader (BioTek SYNERGY-HTX hybrid multi-mode reader, Winooski, Vt.) heated to 37° C., and agitated to ensure homogeneity. Fluorescence measurements were recorded and plotted as the change in initial rates of fluorescence intensity vs hydrogen peroxide concentration. This assay was repeated in triplicate and recorded as the mean+/−STDEV from three experiments.
This finding was deemed to be of great significance as the rate of payload release from the scaffold could then be tuned by varying the amount of H2O2. In addition, this finding also allowed for reaction-based fluorescent probes based off of this design (i.e., compound RAH2115) to be used to accurately quantify the amount of H2O2 in buffered solutions. Indeed, as depicted in FIG. 4, Graph B, when the initial rates of increasing fluorescence intensity of compound RAH2115 were plotted versus hydrogen peroxide concentration, excellent linearity between 0-1 mM was observed (R^2=0.99). […]

CC(C)(Cc1ccccc1B1OC(C)(C)C(C)(C)O1)C(=O)Oc1ccc2nc3ccc(=O)cc-3oc2c1 [compound RAH2115]
fluorescence in live HeLa cells pre-treated with paraquat (in words) (HeLa cells; 10 mM paraquat 4 h, then RAH2115 10 μM 1 hour): strong red fluorescence within cells | fluorescence in live HeLa cells, absence of paraquat (in words) (HeLa cells; RAH2115 10 μM, 1 hour, control without paraquat): no fluorescent cells were observed | increase in relative fluorescence intensity when co-incubated with H2O2 ([1]; 1 mM H2O2, 2 h, vs PBS buffer alone): ~500 fold | increase in fluorescence intensity in the presence of other oxidants, reductants, nucleophiles and salts (in words) ([1]; 2 h, PBS pH 7.4, 37° C.): negligible | fluorescence (ex: 560 nm, em: 585 nm) ([1]; PBS pH 7.4, 37° C., 2 h, (1) PBS Buffer alone): 1.7+/−0.32 | fluorescence (ex: 560 nm, em: 585 nm) ([1]; PBS pH 7.4, 37° C., 2 h, (2) 1 mM H2O2): 812.25+/−89.32 | fluorescence (ex: 560 nm, em: 585 nm) ([1]; PBS pH 7.4, 37° C., 2 h, (3) 1 mM glutathione): 43.65+/−4.24 | fluorescence (ex: 560 nm, em: 585 nm) ([1]; PBS pH 7.4, 37° C., 2 h, (4) 1 mM glutathione disulfide): 29.87+/−0.96 | fluorescence (ex: 560 nm, em: 585 nm) ([1]; PBS pH 7.4, 37° C., 2 h, (5) 1 mM NaNO2): 47.10+/−11.06 | fluorescence (ex: 560 nm, em: 585 nm) ([1]; PBS pH 7.4, 37° C., 2 h, (6) 1 mM L-cysteine): 2.63+/−0.13 | fluorescence (ex: 560 nm, em: 585 nm) ([1]; PBS pH 7.4, 37° C., 2 h, (7) 1 mM L-lysine): 3.31+/−0.61 | fluorescence (ex: 560 nm, em: 585 nm) ([1]; PBS pH 7.4, 37° C., 2 h, (8) 1 mM L-serine): 1.70+/−0.13 | fluorescence (ex: 560 nm, em: 585 nm) ([1]; PBS pH 7.4, 37° C., 2 h, (9) 1 mM NaCl): 40.71+/−1.33 | fluorescence (ex: 560 nm, em: 585 nm) ([1]; PBS pH 7.4, 37° C., 2 h, (10) 1 mM NaBr): 39.56+/−0.02 | fluorescence (ex: 560 nm, em: 585 nm) ([1]; PBS pH 7.4, 37° C., 2 h, (11) 1 mM L-homocysteine): 74.32+/−5.27 | fluorescence (ex: 560 nm, em: 585 nm) ([1]; PBS pH 7.4, 37° C., 2 h, (12) 100 mM Na2S): 46.97+/−1.47 | fluorescence (ex: 560 nm, em: 585 nm) ([1]; PBS pH 7.4, 37° C., 2 h, (13) 1 mM sodium sulfate): 38.01+/−2.86 | fluorescence (ex: 560 nm, em: 585 nm) ([1]; PBS pH 7.4, 37° C., 2 h, (14) 1 mM sodium thiosulfate): 1.72+/−0.22 | fluorescence (ex: 560 nm, em: 585 nm) ([1]; PBS pH 7.4, 37° C., 2 h, (15) 1 mM sodium hypochlorite): 16.75+/−1.09 | detection limit for H2O2 [2]: 1.5 µM
